# Laboratory results published in ChEMBL document CHEMBL1201862, “PubChem BioAssay data set” (2004).
#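 How tested: cells in 96-well plates exposed to compound for 48 hours at five concentrations. At the GI50, growth is halved.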 Activity calls are given as the source filed them. No stated cut-off is given here; in the data, active = GI50 up to about 1.1 µM and inactive = higher.
# Experiments:
# Test in all cases: DTP human tumour cell line panel, 48 h
# OVCAR-4 = test system: OVCAR-4
# MOLT-4 = test system: MOLT-4
# SR = test system: SR
# DU-145 = test system: DU-145
# RPMI-8226 = test system: RPMI-8226
# UACC-257 = test system: UACC-257
# SNB-19 = test system: SNB-19
# CCRF-CEM = test system: CCRF-CEM
# 786-0 = test system: 786-0
# SK-MEL-5 = test system: SK-MEL-5
# NCI-H226 = test system: NCI-H226
# CAKI-1 = test system: CAKI-1
# SW-620 = test system: SW-620
# EKVX = test system: EKVX
# BT-549 = test system: BT-549
# IGROV-1 = test system: IGROV-1
# RXF 393 = test system: RXF 393
# K562 = test system: K562
# T47D = test system: T47D
# COLO 205 = test system: COLO 205
# HOP-62 = test system: HOP-62
# SF-295 = test system: SF-295
# OVCAR-5 = test system: OVCAR-5
# UO-31 = test system: UO-31
# SF-268 = test system: SF-268
# M14 = test system: M14
# HCT-15 = test system: HCT-15
# MDA-MB-231 = test system: MDA-MB-231
# LOX IMVI = test system: LOX IMVI
# MDA-MB-435 = test system: MDA-MB-435
# NCI-H522 = test system: NCI-H522
# HT-29 = test system: HT-29
# A549 = test system: A549
# SK-MEL-28 = test system: SK-MEL-28
# U-251 = test system: U-251
# MCF7 = test system: MCF7
# TK-10 = test system: TK-10
# SN12C = test system: SN12C
# HCT-116 = test system: HCT-116
# A498 = test system: A498
# KM12 = test system: KM12
# Hs-578T = test system: Hs-578T
# OVCAR-3 = test system: OVCAR-3
# MDA-N = test system: MDA-N
# Malme-3M = test system: Malme-3M
# PC-3 = test system: PC-3
# UACC-62 = test system: UACC-62
# NCI/ADR-RES = test system: NCI/ADR-RES
# SK-MEL-2 = test system: SK-MEL-2
# OVCAR-8 = test system: OVCAR-8
# SNB-75 = test system: SNB-75
# ACHN = test system: ACHN
# SK-OV-3 = test system: SK-OV-3
# NCI-H460 = test system: NCI-H460
# HOP-92 = test system: HOP-92
# HCC 2998 = test system: HCC 2998
# HL-60 = test system: HL-60
# SF-539 = test system: SF-539
# NCI-H23 = test system: NCI-H23
smiles,measurement,setting,value
Cc1ccc(C)n1-n1c(Cc2ccc(Cl)cc2)n[nH]c1=O,GI50,OVCAR-4,> 100 µM (inactive)
same,GI50,MOLT-4,29 µM (inactive)
same,GI50,SR,33.2 µM (inactive)
same,GI50,DU-145,> 100 µM (inactive)
same,GI50,RPMI-8226,33.3 µM (inactive)
same,GI50,UACC-257,74.8 µM (inactive)
same,GI50,SNB-19,> 100 µM (inactive)
same,GI50,CCRF-CEM,36.6 µM (inactive)
same,GI50,786-0,> 100 µM (inactive)
same,GI50,SK-MEL-5,51.8 µM (inactive)
same,GI50,NCI-H226,84.7 µM (inactive)
same,GI50,CAKI-1,90.6 µM (inactive)
same,GI50,SW-620,> 100 µM (inactive)
same,GI50,EKVX,69.5 µM (inactive)
same,GI50,BT-549,71.1 µM (inactive)
same,GI50,IGROV-1,> 100 µM (inactive)
same,GI50,RXF 393,59.3 µM (inactive)
same,GI50,K562,41.1 µM (inactive)
same,GI50,T47D,39.9 µM (inactive)
same,GI50,COLO 205,83.6 µM (inactive)
same,GI50,HOP-62,> 100 µM (inactive)
same,GI50,SF-295,66.2 µM (inactive)
same,GI50,OVCAR-5,> 100 µM (inactive)
same,GI50,UO-31,58.7 µM (inactive)
same,GI50,SF-268,> 100 µM (inactive)
same,GI50,M14,> 100 µM (inactive)
same,GI50,HCT-15,> 100 µM
same,GI50,MDA-MB-231,> 100 µM (inactive)
same,GI50,LOX IMVI,59.4 µM (inactive)
same,GI50,MDA-MB-435,> 100 µM (inactive)
same,GI50,NCI-H522,20.9 µM (inactive)
same,GI50,HT-29,73.8 µM (inactive)
same,GI50,A549,69 µM (inactive)
same,GI50,SK-MEL-28,> 100 µM (inactive)
same,GI50,U-251,77.6 µM (inactive)
same,GI50,MCF7,90.4 µM (inactive)
same,GI50,TK-10,> 100 µM (inactive)
same,GI50,SN12C,> 100 µM (inactive)
same,GI50,HCT-116,53.3 µM (inactive)
same,GI50,A498,> 100 µM (inactive)
same,GI50,KM12,46 µM (inactive)
same,GI50,Hs-578T,> 100 µM (inactive)
same,GI50,OVCAR-3,54.5 µM (inactive)
same,GI50,MDA-N,> 100 µM (inactive)
same,GI50,Malme-3M,92.5 µM (inactive)
same,GI50,PC-3,39.2 µM (inactive)
same,GI50,UACC-62,> 100 µM (inactive)
same,GI50,NCI/ADR-RES,40.8 µM (inactive)
same,GI50,SK-MEL-2,31 µM (inactive)
same,GI50,OVCAR-8,77.4 µM (inactive)
same,GI50,SNB-75,> 100 µM (inactive)
same,GI50,ACHN,> 100 µM (inactive)
same,GI50,SK-OV-3,> 100 µM (inactive)
same,GI50,NCI-H460,> 100 µM (inactive)
C=CCN1CCC(c2cc(C(=O)OCC)[nH]c2-c2cc(C)no2)C1=O (stereo not given),GI50,OVCAR-4,> 100 µM (inactive)
same,GI50,MOLT-4,79.6 µM (inactive)
same,GI50,SR,43.8 µM (inactive)
same,GI50,DU-145,> 100 µM (inactive)
same,GI50,RPMI-8226,> 100 µM (inactive)
same,GI50,UACC-257,> 100 µM (inactive)
same,GI50,SNB-19,> 100 µM (inactive)
same,GI50,CCRF-CEM,> 100 µM (inactive)
same,GI50,786-0,> 100 µM (inactive)
same,GI50,SK-MEL-5,> 100 µM (inactive)
same,GI50,NCI-H226,> 100 µM (inactive)
same,GI50,CAKI-1,> 100 µM (inactive)
same,GI50,SW-620,> 100 µM (inactive)
same,GI50,EKVX,> 100 µM (inactive)
same,GI50,BT-549,> 100 µM (inactive)
same,GI50,IGROV-1,> 100 µM (inactive)
same,GI50,RXF 393,> 100 µM (inactive)
same,GI50,K562,> 100 µM (inactive)
same,GI50,T47D,> 100 µM (inactive)
same,GI50,COLO 205,> 100 µM (inactive)
same,GI50,HOP-62,> 100 µM (inactive)
same,GI50,SF-295,> 100 µM (inactive)
same,GI50,OVCAR-5,> 100 µM (inactive)
same,GI50,UO-31,> 100 µM (inactive)
same,GI50,SF-268,> 100 µM (inactive)
same,GI50,M14,> 100 µM (inactive)
same,GI50,HCT-15,> 100 µM
same,GI50,MDA-MB-231,> 100 µM (inactive)
same,GI50,LOX IMVI,> 100 µM (inactive)
same,GI50,MDA-MB-435,> 100 µM (inactive)
same,GI50,HOP-92,> 100 µM (inactive)
same,GI50,HT-29,> 100 µM (inactive)
same,GI50,HCC 2998,> 100 µM (inactive)
same,GI50,A549,> 100 µM (inactive)
same,GI50,SK-MEL-28,> 100 µM (inactive)
same,GI50,U-251,> 100 µM (inactive)
same,GI50,HL-60,76.2 µM (inactive)
same,GI50,MCF7,> 100 µM (inactive)
same,GI50,SN12C,> 100 µM (inactive)
same,GI50,SF-539,> 100 µM (inactive)
same,GI50,HCT-116,> 100 µM (inactive)
same,GI50,A498,> 100 µM (inactive)
same,GI50,KM12,> 100 µM (inactive)
same,GI50,Hs-578T,> 100 µM (inactive)
same,GI50,OVCAR-3,> 100 µM (inactive)
same,GI50,MDA-N,> 100 µM (inactive)
same,GI50,Malme-3M,> 100 µM (inactive)
same,GI50,PC-3,> 100 µM (inactive)
same,GI50,UACC-62,> 100 µM (inactive)
same,GI50,NCI/ADR-RES,> 100 µM (inactive)
same,GI50,SK-MEL-2,> 100 µM (inactive)
same,GI50,OVCAR-8,> 100 µM (inactive)
same,GI50,SNB-75,94.8 µM (inactive)
same,GI50,NCI-H23,> 100 µM (inactive)
same,GI50,SK-OV-3,> 100 µM (inactive)
same,GI50,NCI-H460,> 100 µM (inactive)
